Columns and labels:
[1] = test system: rats with ischemic acute kidney injury; assay: Experimental acute kidney injury induced by warm renal ischemia of 45 min (renal artery clamping); format: in vivo, rat; settings: rats pretreated before renal ischemia of 45 min
Protocol: Male Sprague Dawley rats weighing 300-350 gr were housed under standardized conditions for 2-3 days. Following an overnight fast, the animals were anaesthetized with an inactin anesthesia (100 mg/kg, IP) and placed on a controlled heating (thermoregulated) table keeping the body temperature at 37° C. Polyethylene tubes (PE50) were inserted into the right carotid artery for blood pressure monitoring and blood sampling, and into the jugular vein for infusion of 0.9% normal saline (0.9% NaCl) at a 1.5 ml/h rate, as well as 2% inulin and 1% para-aminohippuric acid (PAH) at a rate of 1.5 ml/h, by syringe pumps. Arterial blood pressure was continuously monitored with a pressure transducer connected to the carotid arterial line. Additional two catheters were inserted after a supravesical incision into the bladder for urine collection. In order to minimize dehydration, the abdominal area was covered with saline-soaked gauze. After 2 baseline urine collections, the left renal artery and vein were dissected and the perirenal fat was preserved. […] Urinary samples were analyzed for neutrophil gelatinase-associated lipocalcin (NGAL) and kidney injury molecule 1 (KIM-1), two novel biomarkers of renal damage. […] The levels of NGAL and KIM-1 were determined in urine samples prior to acute kidney injury (AKI) and at various time points following renal artery clamping.

[2] = test system: rats with decompensated CHF; assay: Pneumoperitoneum (incremental IAP) in rats with decompensated CHF induced by aorto-caval fistula; format: in vivo, rat; settings: pretreated 10 mg/kg/day for 4 days
Text: CHF was induced by surgical creation of aorto-caval fistula (ACF) between the abdominal aorta and the vena cava, as schematically shown in FIG. 1. […] Similar pattern was reported in clinical CHF.
(§1) The abdomen was opened via small incision in the lower third between the xiphoid and pubis and the urinary bladder was catheterized for urine collection. A Veress needle was inserted into the abdominal cavity and connected to the CO2 gas supply to maintain intra-abdominal pressure (IAP) at the desired level using a special insufflator (Aesculap, Tuttlingen, Germany). The muscle and skin layers of the abdominal wall were closed separately by silk sutures in an airtight manner (FIG. 2).
(§2) Male Sprague-Dawley rats were organized into several groups. Normal rats, rats with compensated or decompensated CHF (n=12-13), and rats with MI (n=7) were subjected to IAP of 0 (baseline), 7, 10 or 14 mmHg, over 45-60 min for each pressure, followed by deflation period of 60 min (recovery), as illustrated in Scheme 1. Six additional rats with decompensated CHF and seven additional rats with MI were pretreated with the phosphodiesterase type 5 (PDE5) inhibitor Cialis® (tadalafil; 10 mg/kg/day) for 4 days prior to the experiment. Urine flow rate (V), absolute Na^+ excretion (UNaV), glomerular filtration rate (GFR), renal plasma flow (RPF) and blood pressure were determined throughout the experiments.
In this study, the effects of the phosphodiesterase type 5 (PDE5) inhibitor Cialis® (tadalafil), administered as described in Materials and Methods, on the adverse effects of incremental IAP, simulating pneumoperitoneum, on GFR, RPF, urinary flow rate (V), urinary sodium excretion (UNaV) and urinary cGMP excretion (UcGMP), in rats with decompensated CHF were tested.

rats with MI = assay: Pneumoperitoneum (incremental IAP) in rats with myocardial infarction (LAD occlusion); format: in vivo, rat; settings: pretreated 10 mg/kg/day for 4 days
Protocol: Rats were anesthetized with a combination of ketamine (87 mg/kg) and xylazine (13 mg/kg), intubated, and mechanically ventilated at a rate of 80-90 cycles per minute with a tidal volume of 1-2 ml/100 gr. MI was induced by the most common method. Specifically, the left anterior descending (LAD) artery was completely and permanently occluded. Consequently, a large area of the left ventricle wall was deprived of its blood supply, and was thus exposed to hypoxia, ischemia, nutrient starvation and other conditions that develop under these circumstances. Seven days after LAD inclusion, the rats were used in the experimental model of pneumoperitoneum described below.
as §1, §2
In this study we tested whether rats with heart failure induced by myocardial infarction (MI) display renal susceptibility to IAP similar to that of rats with CHF induced by the creation of ACF. As expected and shown in FIGS. 9A-9D, rats with MI had lower basal GFR and RPF compared with control animals. […] These adverse effects were more profound in rats with MI as compared with sham controls.

[3] = test system: rats subjected to IAP of 14 mm Hg; settings: rat, in vivo; cited from earlier work

SMILES: CN1CC(=O)N2[C@H](c3ccc4c(c3)OCO4)c3[nH]c4ccccc4c3C[C@@H]2C1=O [Cialis®, (6R-trans)-6-(1,3-benzodioxol-5-yl)-2,3,6,7,12,12a-hexahydro-2-methyl-pyrazino[1′,2′:1,6]pyrido[3,4-b]indole-1,4-dione]
- urinary excretion of NGAL ([1]; FIG. 13A): significantly attenuated
- urinary excretion of KIM-1 ([1]; FIG. 13B): significantly attenuated
- adverse effects of increased IAP on urinary flow rate (V) ([2]; FIG. 7A): abolished
- adverse effects of increased IAP on urinary sodium excretion (UNaV) ([2]; FIG. 7B): abolished
- inhibitory effect of IAP on urinary cGMP excretion (UcGMP V) ([2]; FIG. 8): prevented
- adverse effects of increased IAP on GFR ([2]; IAP 7, 10, 14 mmHg, FIGS. 6A-6B): remarkably attenuated
- adverse effects of increased IAP on RPF ([2]; IAP 7, 10, 14 mmHg, FIGS. 6C-6D): remarkably attenuated
- inhibitory effect of IAP on urinary cGMP excretion (UcGMP V) (rats with MI; FIG. 11): significantly attenuated
- adverse effects of pneumoperitoneum on GFR (rats with MI; FIGS. 9A-9B): substantially attenuated
- adverse effects of pneumoperitoneum on RPF (rats with MI; FIGS. 9C-9D): substantially attenuated
- adverse effects of pneumoperitoneum on urinary flow rate (V) (rats with MI; IAP 14 mmHg, FIG. 10A): partially ameliorated
- adverse effects of pneumoperitoneum on urinary sodium excretion (UnaV) (rats with MI; IAP 14 mmHg, FIG. 10B): partially ameliorated

SMILES: O=[N+]([O-])OCC(CO[N+](=O)[O-])O[N+](=O)[O-] [nitroglycerine]
- IAP-induced renal dysfunction (decreased renal excretory function and hypofiltration) [3]: partially ameliorated
